Data taken from PMC10175918 (Communications Biology, 2023).
Read-outs that look alike come from different tables or passages of the source.

Legend:
Experiment in all cases: TGFα-shedding assay-based GPCR screening with chimeric Gα subunit proteins
Assay type in all cases: cell-based
348 GPCRs [1] = target: T1, 348 GPCRs (Homo sapiens, UniProt O00421); settings: 10µM, Favipiravir 100μM
T1 construct: expressed in transfected cells; host or cells: HEK293A
T1 sequence (O00421 1-344): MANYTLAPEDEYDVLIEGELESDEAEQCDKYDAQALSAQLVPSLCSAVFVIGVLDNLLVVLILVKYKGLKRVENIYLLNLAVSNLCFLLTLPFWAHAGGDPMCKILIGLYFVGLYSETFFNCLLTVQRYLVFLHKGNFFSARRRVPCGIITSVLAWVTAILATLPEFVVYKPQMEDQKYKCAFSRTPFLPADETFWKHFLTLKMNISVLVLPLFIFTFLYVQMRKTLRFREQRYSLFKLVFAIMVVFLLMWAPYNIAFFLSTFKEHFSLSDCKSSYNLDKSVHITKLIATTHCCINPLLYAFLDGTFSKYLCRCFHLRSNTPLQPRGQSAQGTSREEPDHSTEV

348 GPCRs [2] = target: T2, 348 GPCRs (Homo sapiens, UniProt O15303); settings: 10µM, Favipiravir 100μM
T2 construct: expressed in transfected cells; host or cells: HEK293A
T2 sequence (O15303 25-877): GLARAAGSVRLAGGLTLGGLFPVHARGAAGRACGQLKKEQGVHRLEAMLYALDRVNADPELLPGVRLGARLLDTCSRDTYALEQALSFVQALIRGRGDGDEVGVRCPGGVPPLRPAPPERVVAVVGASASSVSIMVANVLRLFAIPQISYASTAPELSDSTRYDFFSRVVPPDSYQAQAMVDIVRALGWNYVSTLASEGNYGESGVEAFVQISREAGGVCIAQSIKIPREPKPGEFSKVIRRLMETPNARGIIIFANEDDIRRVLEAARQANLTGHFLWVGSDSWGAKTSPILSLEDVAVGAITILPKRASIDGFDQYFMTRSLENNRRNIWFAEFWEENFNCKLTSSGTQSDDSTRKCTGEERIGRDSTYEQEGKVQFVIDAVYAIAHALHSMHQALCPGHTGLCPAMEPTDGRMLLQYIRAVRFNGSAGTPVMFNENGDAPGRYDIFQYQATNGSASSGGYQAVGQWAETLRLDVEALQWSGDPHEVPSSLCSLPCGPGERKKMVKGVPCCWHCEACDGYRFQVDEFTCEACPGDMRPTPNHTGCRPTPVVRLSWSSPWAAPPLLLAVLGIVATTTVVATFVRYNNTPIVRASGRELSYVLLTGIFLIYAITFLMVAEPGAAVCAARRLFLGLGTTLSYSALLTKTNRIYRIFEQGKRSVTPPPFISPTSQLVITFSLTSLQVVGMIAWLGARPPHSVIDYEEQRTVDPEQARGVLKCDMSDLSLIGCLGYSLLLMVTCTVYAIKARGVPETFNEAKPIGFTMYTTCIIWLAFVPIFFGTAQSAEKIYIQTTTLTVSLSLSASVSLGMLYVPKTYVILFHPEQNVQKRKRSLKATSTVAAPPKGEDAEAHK

348 GPCRs [3] = target: 348 GPCRs (Homo sapiens, UniProt P21728); settings: 10µM, Favipiravir 100μM
348 GPCRs (Homo sapiens, UniProt P21728), sequence (P21728 whole entry): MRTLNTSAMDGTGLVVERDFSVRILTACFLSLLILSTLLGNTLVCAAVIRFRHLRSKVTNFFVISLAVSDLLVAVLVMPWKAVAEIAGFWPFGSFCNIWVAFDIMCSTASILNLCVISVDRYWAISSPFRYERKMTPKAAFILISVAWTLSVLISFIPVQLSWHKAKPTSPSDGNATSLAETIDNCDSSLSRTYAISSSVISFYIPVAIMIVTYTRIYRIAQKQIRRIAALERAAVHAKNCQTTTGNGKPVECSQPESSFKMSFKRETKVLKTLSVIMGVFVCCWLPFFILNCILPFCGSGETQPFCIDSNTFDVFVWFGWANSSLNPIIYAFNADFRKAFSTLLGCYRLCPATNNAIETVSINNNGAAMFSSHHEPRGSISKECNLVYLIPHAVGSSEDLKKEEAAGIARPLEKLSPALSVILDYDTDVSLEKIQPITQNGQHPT

348 GPCRs [4] = target: T3, 348 GPCRs (Homo sapiens, UniProt P30556); settings: 10µM, Favipiravir 100μM
T3 construct: expressed in transfected cells; host or cells: HEK293A
T3 sequence (P30556 1-359): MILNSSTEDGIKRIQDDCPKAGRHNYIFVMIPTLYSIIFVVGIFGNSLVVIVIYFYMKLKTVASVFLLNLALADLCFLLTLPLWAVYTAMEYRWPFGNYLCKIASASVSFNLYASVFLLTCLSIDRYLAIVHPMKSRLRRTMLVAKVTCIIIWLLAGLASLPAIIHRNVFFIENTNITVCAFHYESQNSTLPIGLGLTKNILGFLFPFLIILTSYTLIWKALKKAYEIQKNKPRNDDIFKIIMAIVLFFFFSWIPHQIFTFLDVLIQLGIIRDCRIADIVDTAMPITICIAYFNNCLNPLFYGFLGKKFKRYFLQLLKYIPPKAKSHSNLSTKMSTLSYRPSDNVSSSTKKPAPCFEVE

348 GPCRs [5] = target: 348 GPCRs (Homo sapiens, UniProt P30872); settings: 10µM, Favipiravir 100μM
348 GPCRs (Homo sapiens, UniProt P30872), sequence (P30872 whole entry): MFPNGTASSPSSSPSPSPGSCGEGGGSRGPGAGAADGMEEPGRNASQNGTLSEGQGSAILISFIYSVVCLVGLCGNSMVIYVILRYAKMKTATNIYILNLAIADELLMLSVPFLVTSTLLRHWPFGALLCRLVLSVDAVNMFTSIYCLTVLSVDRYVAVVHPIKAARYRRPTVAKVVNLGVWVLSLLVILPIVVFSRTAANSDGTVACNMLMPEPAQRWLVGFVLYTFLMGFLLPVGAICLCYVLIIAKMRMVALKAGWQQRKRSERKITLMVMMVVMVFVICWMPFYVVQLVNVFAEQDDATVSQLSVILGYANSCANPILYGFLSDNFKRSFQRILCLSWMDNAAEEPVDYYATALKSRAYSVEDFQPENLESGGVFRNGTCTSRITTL

348 GPCRs [6] = target: T4, 348 GPCRs (Homo sapiens, UniProt P37288)
T4 construct: expressed in transfected cells; host or cells: HEK293A
T4 sequence (P37288 whole entry): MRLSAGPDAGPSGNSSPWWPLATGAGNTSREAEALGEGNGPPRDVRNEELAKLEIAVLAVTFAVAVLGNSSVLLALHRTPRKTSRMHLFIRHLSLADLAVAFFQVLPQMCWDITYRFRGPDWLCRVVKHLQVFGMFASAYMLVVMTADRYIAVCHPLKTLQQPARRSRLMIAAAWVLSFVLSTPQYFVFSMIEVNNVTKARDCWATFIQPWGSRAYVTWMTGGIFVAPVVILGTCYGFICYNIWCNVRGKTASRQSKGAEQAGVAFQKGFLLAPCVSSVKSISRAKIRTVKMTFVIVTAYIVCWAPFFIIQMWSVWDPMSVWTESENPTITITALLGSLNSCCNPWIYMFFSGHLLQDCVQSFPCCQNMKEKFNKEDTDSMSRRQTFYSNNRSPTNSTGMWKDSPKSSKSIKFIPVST

348 GPCRs [7] = target: T5, 348 GPCRs (Homo sapiens, UniProt P47898); settings: 10µM, Favipiravir 100μM
T5 construct: expressed in transfected cells; host or cells: HEK293A
T5 sequence (P47898 whole entry): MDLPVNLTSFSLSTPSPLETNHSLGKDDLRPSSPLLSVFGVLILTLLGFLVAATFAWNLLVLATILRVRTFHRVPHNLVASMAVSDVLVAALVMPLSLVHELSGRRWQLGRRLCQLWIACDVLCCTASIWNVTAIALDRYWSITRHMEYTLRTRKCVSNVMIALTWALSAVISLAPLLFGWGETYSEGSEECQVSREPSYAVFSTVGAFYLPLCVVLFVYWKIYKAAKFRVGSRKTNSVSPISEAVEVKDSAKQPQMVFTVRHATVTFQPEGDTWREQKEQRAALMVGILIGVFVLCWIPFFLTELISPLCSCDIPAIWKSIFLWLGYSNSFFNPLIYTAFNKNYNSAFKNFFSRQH

348 GPCRs [8] = target: T6, 348 GPCRs (Homo sapiens, UniProt P48039); settings: 10µM, Favipiravir 100μM
T6 construct: expressed in transfected cells; host or cells: HEK293A
T6 sequence (P48039 whole entry): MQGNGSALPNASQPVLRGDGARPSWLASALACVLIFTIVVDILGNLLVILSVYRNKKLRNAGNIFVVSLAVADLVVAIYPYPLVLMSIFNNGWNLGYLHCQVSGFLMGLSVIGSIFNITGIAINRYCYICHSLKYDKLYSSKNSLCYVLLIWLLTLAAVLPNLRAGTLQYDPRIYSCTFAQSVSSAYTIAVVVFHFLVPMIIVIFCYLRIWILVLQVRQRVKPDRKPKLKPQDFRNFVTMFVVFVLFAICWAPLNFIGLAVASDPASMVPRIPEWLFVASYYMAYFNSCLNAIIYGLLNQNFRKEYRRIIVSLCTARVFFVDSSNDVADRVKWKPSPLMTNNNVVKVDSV

348 GPCRs [9] = target: T7, 348 GPCRs (Homo sapiens, UniProt Q7Z601); settings: 10µM, Favipiravir 100μM
T7 construct: expressed in transfected cells; host or cells: HEK293A
T7 sequence (Q7Z601 1-462): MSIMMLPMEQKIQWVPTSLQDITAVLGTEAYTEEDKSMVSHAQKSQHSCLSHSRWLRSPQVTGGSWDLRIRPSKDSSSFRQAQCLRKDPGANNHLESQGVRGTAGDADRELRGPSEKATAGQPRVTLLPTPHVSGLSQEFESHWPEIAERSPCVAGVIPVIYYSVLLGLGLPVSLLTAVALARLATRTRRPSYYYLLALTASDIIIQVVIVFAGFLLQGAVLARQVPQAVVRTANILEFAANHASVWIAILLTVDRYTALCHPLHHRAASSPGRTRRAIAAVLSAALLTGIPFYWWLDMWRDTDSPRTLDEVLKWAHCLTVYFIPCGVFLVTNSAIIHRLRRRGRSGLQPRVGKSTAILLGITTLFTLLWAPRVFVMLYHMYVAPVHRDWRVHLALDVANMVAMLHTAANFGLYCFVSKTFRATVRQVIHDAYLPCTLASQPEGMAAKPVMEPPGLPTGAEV

348 GPCRs [10] = target: T8, 348 GPCRs (Homo sapiens, UniProt Q96RJ0); settings: 10µM, Favipiravir 100μM
T8 construct: expressed in transfected cells; host or cells: HEK293A
T8 sequence (Q96RJ0 1-339): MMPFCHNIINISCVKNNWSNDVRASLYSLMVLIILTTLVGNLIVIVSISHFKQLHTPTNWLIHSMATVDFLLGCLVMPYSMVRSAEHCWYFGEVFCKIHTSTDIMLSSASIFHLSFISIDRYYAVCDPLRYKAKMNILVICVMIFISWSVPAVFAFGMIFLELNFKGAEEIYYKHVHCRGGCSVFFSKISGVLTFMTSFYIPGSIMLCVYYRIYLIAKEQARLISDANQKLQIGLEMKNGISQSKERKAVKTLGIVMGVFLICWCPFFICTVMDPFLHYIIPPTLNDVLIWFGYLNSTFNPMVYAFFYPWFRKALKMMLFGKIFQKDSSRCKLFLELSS

348 GPCRs [11] = target: T9, 348 GPCRs (Homo sapiens, UniProt Q9NYM4); settings: 10µM, Favipiravir 100μM
T9 construct: expressed in transfected cells; host or cells: HEK293A
T9 sequence (Q9NYM4 17-423): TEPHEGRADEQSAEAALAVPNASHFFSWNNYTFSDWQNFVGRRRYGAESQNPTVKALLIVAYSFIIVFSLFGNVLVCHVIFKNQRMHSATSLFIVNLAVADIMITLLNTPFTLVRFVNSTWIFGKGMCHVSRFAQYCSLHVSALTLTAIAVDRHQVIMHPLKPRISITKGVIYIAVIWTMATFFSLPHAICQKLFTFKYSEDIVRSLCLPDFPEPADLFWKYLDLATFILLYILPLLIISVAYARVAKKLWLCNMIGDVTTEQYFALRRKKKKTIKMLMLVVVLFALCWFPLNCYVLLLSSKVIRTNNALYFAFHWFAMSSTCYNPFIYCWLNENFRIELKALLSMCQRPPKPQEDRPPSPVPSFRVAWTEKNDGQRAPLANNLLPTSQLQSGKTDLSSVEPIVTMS

[12] = CCRL2 (chemokine (C-C motif) receptor-like 2), read-out: % GPCR activation compared to TPA
[13] = GRM6 (glutamate receptor, metabotropic 6), read-out: % GPCR activation compared to TPA
[14] = D1 (dopamine receptor D1), read-out: % GPCR activation compared to TPA
[15] = AGTR1 (angiotensin II receptor, type 1), read-out: % GPCR activation compared to TPA
[16] = SSTR1 (somatostatin receptor 1), read-out: % GPCR activation compared to TPA
[17] = GPCR V1A (arginine vasopressin receptor 1A), read-out: % GPCR activation compared to TPA
[18] = 5-HT5A (5-hydroxytryptamine receptor 5A), read-out: % GPCR activation compared to TPA
[19] = MT1R (melatonin receptor type 1A), read-out: % GPCR activation compared to TPA
[20] = GPR142 (G protein-coupled receptor 142), read-out: % GPCR activation compared to TPA
[21] = TA1 (trace amine associated receptor 1), read-out: % GPCR activation compared to TPA
[22] = GPR83 (G Protein-Coupled Receptor 83), read-out: % GPCR activation compared to TPA
[23] = read-out: % GPCR activation compared to TPA, CCRL2 (chemokine (C-C motif) receptor-like 2)
[24] = read-out: % GPCR activation compared to TPA, GRM6 (glutamate receptor, metabotropic 6)
[25] = read-out: % GPCR activation compared to TPA, D1 (dopamine receptor D1)
[26] = read-out: % GPCR activation compared to TPA, AGTR1 (angiotensin II receptor, type 1)
[27] = read-out: % GPCR activation compared to TPA, SSTR1 (somatostatin receptor 1)
[28] = read-out: % GPCR activation compared to TPA, GPCR V1A (arginine vasopressin receptor 1A)
[29] = read-out: % GPCR activation compared to TPA, 5-HT5A (5-hydroxytryptamine receptor 5A)
[30] = read-out: % GPCR activation compared to TPA, MT1R (melatonin receptor type 1A)
[31] = read-out: % GPCR activation compared to TPA, GPR142 (G protein-coupled receptor 142)
[32] = read-out: % GPCR activation compared to TPA, TA1 (trace amine associated receptor 1)
[33] = read-out: % GPCR activation compared to TPA, GPR83 (G Protein-Coupled Receptor 83)

Structure (SMILES) | activation at 10 µM (348 GPCRs [1]; [12]) | activation at 10 µM (348 GPCRs [2]; [13]) | activation at 10 µM (348 GPCRs [3]; [14]) | activation at 10 µM (348 GPCRs [4]; [15]) | activation at 10 µM (348 GPCRs [5]; [16]) | activation at 10 µM (348 GPCRs [6]; [17]) | activation at 100 µM (348 GPCRs [7]; [18]) | activation at 10 µM (348 GPCRs [8]; [19]) | activation at 100 µM (348 GPCRs [9]; [20]) | activation at 100 µM (348 GPCRs [10]; [21]) | activation at 100 µM (348 GPCRs [11]; [22]) | activation at 10 µM (348 GPCRs [1]; [23]) | activation at 10 µM (348 GPCRs [2]; [24]) | activation at 10 µM (348 GPCRs [3]; [25]) | activation at 10 µM (348 GPCRs [4]; [26]) | activation at 10 µM (348 GPCRs [5]; [27]) | activation at 10 µM (348 GPCRs [6]; [28]) | activation at 100 µM (348 GPCRs [7]; [29]) | activation at 10 µM (348 GPCRs [8]; [30]) | activation at 100 µM (348 GPCRs [9]; [31]) | other results
NC(=O)c1nc(F)cnc1O [favipiravir, 6-fluoro-3-hydroxy-2-pyrazinecarboxamide] | 0.0461% | -0.482% | -0.0785% | 0.178% | 0.537% |  | -2.45% | -1.27% | -0.257% | -2.98% | -2.15% |  |  |  |  |  |  |  |  |  | activation at 100 µM (348 GPCRs [6]; GPCR V1A (arginine vasopressin receptor 1A), 100μM, read-out: % GPCR activation compared to TPA): 0.923%
CCC(CC)COC(=O)[C@H](C)N[P@](=O)(OC[C@H]1O[C@@](C#N)(c2ccc3c(N)ncnn23)[C@H](O)[C@@H]1O)Oc1ccccc1 [remdesivir] |  |  |  |  |  |  |  |  |  |  |  | 0.0536% | -1.74% | 4.77% | 1.2% | 2.79% | 0.24% | -0.876% | 0.542% | 1.22% | activation at 100 µM (348 GPCRs [10]; [32]): -1.76%; activation at 100 µM (348 GPCRs [11]; [33]): -2.36%
CC(C)OC(=O)[C@H](C)N[P@](=O)(OC[C@H]1O[C@@H](n2ccc(=O)[nH]c2=O)[C@](C)(F)[C@@H]1O)Oc1ccccc1 [sofosbuvir] |  |  |  |  |  |  |  |  |  |  |  | 1.66% | 2.66% | -0.068% | 2.52% | -0.638% | -0.512% | -0.524% | -4.49% | 3.77% | activation at 100 µM (348 GPCRs [10]; [32]): -1.12%; activation at 100 µM (348 GPCRs [11]; [33]): -0.627%

Second part, led by results:

activation at 10 µM (348 GPCRs [1]; [12]) | activation at 10 µM (348 GPCRs [2]; [13]) | activation at 10 µM (348 GPCRs [3]; [14]) | activation at 10 µM (348 GPCRs [4]; [15]) | activation at 10 µM (348 GPCRs [5]; [16]) | activation at 10 µM (348 GPCRs [6]; [17]) | activation at 100 µM (348 GPCRs [7]; [18]) | activation at 10 µM (348 GPCRs [8]; [19]) | activation at 100 µM (348 GPCRs [9]; [20]) | activation at 100 µM (348 GPCRs [10]; [21]) | activation at 100 µM (348 GPCRs [11]; [22]) | Structure (SMILES) | activation at 10 µM (348 GPCRs [1]; [23]) | activation at 10 µM (348 GPCRs [2]; [24]) | activation at 10 µM (348 GPCRs [3]; [25]) | activation at 10 µM (348 GPCRs [4]; [26]) | activation at 10 µM (348 GPCRs [5]; [27]) | activation at 10 µM (348 GPCRs [6]; [28]) | activation at 100 µM (348 GPCRs [7]; [29]) | activation at 10 µM (348 GPCRs [8]; [30]) | activation at 100 µM (348 GPCRs [9]; [31]) | other results
2.25% | -1.17% | 0.291% | 1.08% | -0.554% | -0.48% | -3.98% | 0.391% | 0.3% | -1.3% | -1.11% | N#C[C@@]1(c2ccc3c(N)ncnn23)O[C@H](CO)[C@@H](O)[C@H]1O [GS441524] |  |  |  |  |  |  |  |  |  | 
-0.522% | -2.76% | 1.11% | -0.396% | 0.451% | 0.0613% | -1.01% | -4.07% | 2.63% | -2.64% | -2.02% | CC(C)C(=O)OC[C@H]1O[C@@H](n2ccc(NO)nc2=O)[C@H](O)[C@@H]1O [molnupiravir] |  |  |  |  |  |  |  |  |  | 
